Where a name gives a salt, the structure may show the parent alone.
Assay: Clinical use in treatment protocol of the BALD syndrome
Assay type: in vivo
Conditions: for clinical outcome in treatment of the BALD syndrome: patients with BALD syndrome, core treatment steps (calcium channel blocker, anti-viral/anti-fungal, chelating agent); for clinical outcome, pulmonary problems: BALD patients with pulmonary problems (restrictive lung disease)
Source text: The treatment protocol consists of ruling in or out of the BALD syndrome then treatment of the core pathology of the syndrome if present. This consists of treatment of the most acute aspects of the BALD syndrome followed by more conservative treatments of the more chronic symptoms or pathology. If diagnosis progresses to brainstem or other neuron damage with significant inflammation the treatment consists of immediate inflammation reduction and stabilization of the immune system. This is followed by conservative treatments as indicated in the diagnosis of the disorder.
The treatment proceeds in steps.
Step one in the treatment of the disorder would start with drugs that are known to block calcium intake channels of neurons. […] The usual dosage can be 30 mg. three times daily more or less in the clinical judgment of the physician.
Step three in the treatment of a BALD syndrome involving viral infection to any degree is to administer anti-viral and anti-fungal drugs to the patient. […] This is a synthetic acyclic purine nucleoside analog.
This Is a synthetic broad spectrum bis-trazole antifungal agent. […] This is a synthetic trazole antifungal agent with the chemical name of itraconazole.
Step seven is to administer a chelating agent to the patient to eliminate toxic heavy metals from the system.
Azulfadine should be started for patients with irritable bowel syndrome.

Row | Structure (SMILES) | clinical outcome in treatment of the BALD syndrome | also measured
1 | Nc1nc2c(ncn2COCCO)c(=O)[nH]1 [Acyclovir, acycloguanosine] | Clinical success | –
2 | OC(Cn1cncn1)(Cn1cncn1)c1ccc(F)cc1F [difulcan, fluconazole] | good clinical results | –
3 | COc1cc(C(=O)NS(=O)(=O)c2ccccc2C)ccc1Cc1cn(C)c2ccc(NC(=O)OC3CCCC3)cc12 [Accolate, zafirlukast] | – | clinical outcome, pulmonary problems: clinically successful
4 | O=C(O)c1cc(/N=N/c2ccc(S(=O)(=O)Nc3ccccn3)cc2)ccc1O [Azulfadine, sulfasalazine] | – | clinical outcome, irritable bowel syndrome (BALD patients with irritable bowel syndrome): successful drug in clinical usage
5 | CC(C)(O)c1ccccc1CC[C@@H](SCC1(CC(=O)O)CC1)c1cccc(/C=C/c2ccc3ccc(Cl)cc3n2)c1 [Singulair, sodium montelukast] | – | clinical outcome, pulmonary problems: Clinical success
6 | O=C1CN=C(c2ccccc2Cl)c2cc([N+](=O)[O-])ccc2N1 [Klonapin, clonazepam] | – | clinical outcome, anti-anxiety (BALD patients, anti-anxiety drug): clinically successful
7 | CC(C)[C@H](N)C(=O)OCCOCn1cnc2c(=O)[nH]c(N)nc21 [Valtrex, valacyclovir hydrochloride] | clinically successful | –
8 | O=C([O-])CN(CCN(CC(=O)[O-])CC(=O)O)CC(=O)O.[Na+].[Na+] [EDTA, edate disodium] | Clinical success | –

Reference: patent US20020169364A1, “Brainstem and limbic disorder (BALD)” (priority 2000, published 2002)
